For one assay, the target named is T1, rat α4β2 nAChR subtype (Rattus norvegicus, UniProt P09483+P12390).
T1 construct: The cerebral cortex was removed and placed in 20 volumes (weight:volume) of ice-cold preparative buffer; from tissue; host or cells: rat cerebral cortex membranes (female Sprague-Dawley)
Briefly: Radioligand binding, [3H]nicotine, rat cortex membranes. To be noted: [3H]nicotine 5 nM. Here is the method:
Preparation of Membranes from Rat Cortex: Rats (Female, Sprague-Dawley), weighing 150-250 g, were maintained on a 12 h light/dark cycle and were allowed free access to water and food supplied by PMI Nutrition International, Inc. Animals were anesthetized with 70% CO2, and then decapitated. Brains were removed and placed on an ice-cold platform. The cerebral cortex was removed and placed in 20 volumes (weight:volume) of ice-cold preparative buffer (137 mM NaCl, 10.7 mM KCl, 5.8 mM KH2PO4, 8 mM Na2HPO4, 20 mM HEPES (free acid), 5 mM iodoacetamide, 1.6 mM EDTA, pH 7.4); PMSF, dissolved in methanol to a final concentration of 100 μM, was added and the suspension was homogenized by Polytron. The homogenate was centrifuged at 18,000×g for 20 min at 4° C. and the resulting pellet was re-suspended in 20 volumes of ice-cold water. After 60 min incubation on ice, a new pellet was collected by centrifugation at 18,000×g for 20 min at 4° C. The final pellet was re-suspended in 10 volumes of buffer and stored at −20° C.
(§1) On the day of the assay, the frozen membranes were thawed and spun at 48,000×g for 20 min. The supernatant was decanted and discarded. The pellet was resuspended in Dulbecco's phosphate buffered saline (PBS, Life Technologies) pH 7.4 and homogenized with the Polytron for 6 seconds. Protein concentrations were determined using a Pierce BCA Protein Assay Kit, with bovine serum albumin as the standard (Pierce Chemical Company, Rockford, Ill.).
(§2) Membrane preparations (approximately 50 μg for human and 200-300 μg protein for rat α4β2) were incubated in PBS (50 μL and 100 μL respectively) in the presence of competitor compound (0.01 nM to 100 μM) and 5 nM [^3H]nicotine for 2-3 hours on ice. Incubation was terminated by rapid filtration on a multi-manifold tissue harvester (Brandel, Gaithersburg, Md.) using GF/B filters presoaked in 0.33% polyethyleneimine (w/v) to reduce non-specific binding. Tissue was rinsed 3 times in PBS, pH 7.4. Scintillation fluid was added to filters containing the washed tissue and allowed to equilibrate. Filters were then counted to determine radioactivity bound to the membranes by liquid scintillation counting (2200CA Tri-Carb LSC, Packard Instruments, 50% efficiency or Wallac Trilux 1450 MicroBeta, 40% efficiency, Perkin Elmer).
(§3) Data were expressed as disintegrations per minute (DPMs). Within each assay, each point had 2-3 replicates. The replicates for each point were averaged and plotted against the log of the drug concentration. IC50, which is the concentration of the compound that produces 50% inhibition of binding, was determined by least squares non-linear regression. Ki values were calculated using the Cheng-Prussof equation (1973): […]

The target in the next assay is T2, human α4β2 nAChR subtype (Homo sapiens, UniProt P17787+P43681).
T2 construct: expressed in transfected cells; host or cells: SH-EP1 clonal cells expressing human α4β2
T2 sequence (P43681 29-627 limits assumed): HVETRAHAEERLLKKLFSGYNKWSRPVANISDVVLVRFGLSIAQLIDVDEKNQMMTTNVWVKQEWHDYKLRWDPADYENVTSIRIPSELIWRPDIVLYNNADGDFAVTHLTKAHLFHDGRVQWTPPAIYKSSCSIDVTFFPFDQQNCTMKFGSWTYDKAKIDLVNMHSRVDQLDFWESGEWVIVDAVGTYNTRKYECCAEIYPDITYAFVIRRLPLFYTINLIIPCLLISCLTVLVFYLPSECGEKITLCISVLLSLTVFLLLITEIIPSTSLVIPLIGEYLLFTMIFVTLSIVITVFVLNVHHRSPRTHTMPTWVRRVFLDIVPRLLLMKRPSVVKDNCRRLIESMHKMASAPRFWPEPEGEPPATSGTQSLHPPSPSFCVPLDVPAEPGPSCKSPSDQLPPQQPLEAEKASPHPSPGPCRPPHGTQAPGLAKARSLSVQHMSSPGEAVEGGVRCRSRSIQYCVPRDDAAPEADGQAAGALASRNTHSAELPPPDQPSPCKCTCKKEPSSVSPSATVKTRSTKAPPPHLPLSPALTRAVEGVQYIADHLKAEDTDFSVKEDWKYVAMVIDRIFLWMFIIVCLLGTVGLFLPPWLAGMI
T2 sequence (P17787 26-502): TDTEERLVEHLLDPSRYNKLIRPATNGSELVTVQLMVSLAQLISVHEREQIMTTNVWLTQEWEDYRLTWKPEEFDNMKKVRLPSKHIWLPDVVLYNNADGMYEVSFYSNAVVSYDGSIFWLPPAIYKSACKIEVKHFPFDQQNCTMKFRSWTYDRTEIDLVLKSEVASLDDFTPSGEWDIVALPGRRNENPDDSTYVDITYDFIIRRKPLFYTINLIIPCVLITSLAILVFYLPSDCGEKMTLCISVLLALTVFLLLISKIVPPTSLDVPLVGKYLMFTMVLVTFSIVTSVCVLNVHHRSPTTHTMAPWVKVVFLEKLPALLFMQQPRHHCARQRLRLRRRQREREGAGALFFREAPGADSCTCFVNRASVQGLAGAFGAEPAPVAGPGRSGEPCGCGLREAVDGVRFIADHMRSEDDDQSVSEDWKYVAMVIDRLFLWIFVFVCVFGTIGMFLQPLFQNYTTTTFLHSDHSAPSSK
Briefly: Radioligand binding, [3H]nicotine, membranes from SH-EP1/human α4β2 clonal cells. To be noted: [3H]nicotine 5 nM, SH-EP1/human α4β2 cell membranes. As for the experimental part:
Preparation of membranes from SH-EP1/human α4β2 clonal cells: Cell pellets from 40 150 mm culture dishes were pooled, and homogenized by Polytron (Kinematica GmbH, Switzerland) in 20 milliliters of ice-cold preparative buffer. The homogenate was centrifuged at 48,000 g for 20 minutes at 4° C. The resulting pellet was re-suspended in 20 mL of ice-cold preparative buffer and stored at −20° C.
as §1, §2, §3

Another assay concerns the target T3, α7 nAChR subtype (Rattus norvegicus, UniProt Q05941).
T3 construct: The hippocampus was removed and placed in 10 volumes (weight:volume) of ice-cold preparative buffer; from tissue; host or cells: rat hippocampus membranes (female Sprague-Dawley)
The experiment in a line: Radioligand binding, [3H]MLA, rat hippocampus membranes. To be noted: for inhibition at 5 µM: read-out: α7 high through-put screening (HTS) result; for Ki: [3H]MLA 5 nM, rat hippocampus membranes, read-out: α7 Ki. As for the experimental part:
Rats (female, Sprague-Dawley), weighing 150-250 g, were maintained on a 12 h light/dark cycle and were allowed free access to water and food supplied by PMI Nutrition International, Inc. Animals were anesthetized with 70% CO2, then decapitated. Brains were removed and placed on an ice-cold platform. The hippocampus was removed and placed in 10 volumes (weight:volume) of ice-cold preparative buffer (137 mM NaCl, 10.7 mM KCl, 5.8 mM KH2PO4, 8 mM Na2HPO4, 20 mM HEPES (free acid), 5 mM iodoacetamide, 1.6 mM EDTA, pH 7.4); PMSF, dissolved in methanol to a final concentration of 100 μM, was added and the tissue suspension was homogenized by Polytron. The homogenate was centrifuged at 18,000×g for 20 min at 4° C. and the resulting pellet was re-suspended in 10 volumes of ice-cold water. After 60 min incubation on ice, a new pellet was collected by centrifugation at 18,000×g for 20 min at 4° C. The final pellet was re-suspended in 10 volumes of buffer and stored at −20° C. On the day of the assay, tissue was thawed, centrifuged at 18,000×g for 20 min, and then re-suspended in ice-cold PBS (Dulbecco's Phosphate Buffered Saline, 138 mM NaCl, 2.67 mM KCl, 1.47 mM KH2PO4, 8.1 mM Na2HPO4, 0.9 mM CaCl2, 0.5 mM MgCl2, Invitrogen/Gibco, pH 7.4) to a final concentration of approximately 2 mg protein/mL. Protein was determined by the method of Lowry et al., J. Biol. Chem. 193: 265 (1951), using bovine serum albumin as the standard.
The binding of [^3H]MLA was measured using a modification of the methods of Davies et al., Neuropharmacol. 38: 679 (1999). [^3H]MLA (Specific Activity=25-35 Ci/mmol) was obtained from Tocris. The binding of [^3H]MLA was determined using a 2 h incubation at 21° C. Incubations were conducted in 48-well micro-titre plates and contained about 200 μg of protein per well in a final incubation volume of 300 μL. The incubation buffer was PBS and the final concentration of [^3H]MLA was 5 nM. The binding reaction was terminated by filtration of the protein containing bound ligand onto glass fiber filters (GF/B, Brandel) using a Brandel Tissue Harvester at room temperature. Filters were soaked in de-ionized water containing 0.33% polyethyleneimine to reduce non-specific binding. Each filter was washed with PBS (3×1 mL) at room temperature. Non-specific binding was determined by inclusion of 50 μM non-radioactive MLA in selected wells.
The inhibition of [^3H]MLA binding by test compounds was determined by including seven different concentrations of the test compound in selected wells. Each concentration was replicated in triplicate. IC50 values were estimated as the concentration of compound that inhibited 50 percent of specific [^3H]MLA binding. Inhibition constants (Ki values), reported in nM, were calculated from the IC50 values using the method of Cheng et al., Biochem. Pharmacol. 22: 3099-3108 (1973).

A word on the Ki: it is the dissociation constant of the complex between target and ligand, obtained from inhibition or displacement.

T1 sequence (P09483 31-630): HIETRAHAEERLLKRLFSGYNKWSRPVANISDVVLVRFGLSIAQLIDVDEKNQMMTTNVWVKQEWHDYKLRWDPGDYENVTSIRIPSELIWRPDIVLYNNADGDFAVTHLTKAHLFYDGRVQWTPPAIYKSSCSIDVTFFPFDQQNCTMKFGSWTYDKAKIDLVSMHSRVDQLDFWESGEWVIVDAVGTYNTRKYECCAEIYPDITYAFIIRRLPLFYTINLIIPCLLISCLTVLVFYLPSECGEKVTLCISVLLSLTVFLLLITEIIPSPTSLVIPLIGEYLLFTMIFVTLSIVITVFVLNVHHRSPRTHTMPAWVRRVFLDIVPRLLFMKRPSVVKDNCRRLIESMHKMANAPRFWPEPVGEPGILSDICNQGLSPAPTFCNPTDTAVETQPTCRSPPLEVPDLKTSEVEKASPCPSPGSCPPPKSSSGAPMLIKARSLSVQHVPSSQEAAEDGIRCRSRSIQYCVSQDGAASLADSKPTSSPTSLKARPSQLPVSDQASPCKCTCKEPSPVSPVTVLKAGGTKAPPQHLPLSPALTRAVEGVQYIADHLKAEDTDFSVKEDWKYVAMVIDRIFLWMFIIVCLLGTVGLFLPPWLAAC
T1 sequence (P12390 25-500): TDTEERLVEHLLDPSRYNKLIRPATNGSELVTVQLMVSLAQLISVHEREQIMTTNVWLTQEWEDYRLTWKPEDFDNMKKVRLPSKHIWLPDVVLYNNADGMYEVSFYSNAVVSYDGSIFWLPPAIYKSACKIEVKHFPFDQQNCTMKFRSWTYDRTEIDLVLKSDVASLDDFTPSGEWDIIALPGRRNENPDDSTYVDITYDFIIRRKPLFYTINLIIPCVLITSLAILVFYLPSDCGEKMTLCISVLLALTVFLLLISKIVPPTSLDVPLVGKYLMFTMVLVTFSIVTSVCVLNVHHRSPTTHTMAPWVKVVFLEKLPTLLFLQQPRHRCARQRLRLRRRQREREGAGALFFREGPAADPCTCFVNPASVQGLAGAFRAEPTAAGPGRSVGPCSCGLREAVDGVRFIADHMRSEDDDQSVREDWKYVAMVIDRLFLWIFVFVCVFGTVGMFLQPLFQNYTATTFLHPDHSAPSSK
T3 sequence (Q05941 23-502): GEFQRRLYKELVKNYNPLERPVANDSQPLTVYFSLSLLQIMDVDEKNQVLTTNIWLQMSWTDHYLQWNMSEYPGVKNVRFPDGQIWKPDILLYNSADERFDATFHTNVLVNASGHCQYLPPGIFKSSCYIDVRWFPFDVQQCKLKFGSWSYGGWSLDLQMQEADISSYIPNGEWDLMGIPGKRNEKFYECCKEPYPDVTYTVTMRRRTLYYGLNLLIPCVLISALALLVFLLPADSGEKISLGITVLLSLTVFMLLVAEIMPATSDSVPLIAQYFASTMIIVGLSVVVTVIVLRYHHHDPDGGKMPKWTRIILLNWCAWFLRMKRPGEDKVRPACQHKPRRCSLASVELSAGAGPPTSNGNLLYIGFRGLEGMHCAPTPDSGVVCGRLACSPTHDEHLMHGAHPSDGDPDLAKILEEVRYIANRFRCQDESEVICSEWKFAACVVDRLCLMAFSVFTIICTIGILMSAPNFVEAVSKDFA

Take `CC(=O)N1CC2CNCC2C1` (stereo not drawn) [Example 10-1]: the inhibitory constant (Ki) was found to be 20.5 nM on rat α4β2 nAChR subtype and 38.5 nM on human α4β2 nAChR subtype. The inhibition at 5 µM at α7 nAChR subtype was below 50%.

Turning to `O=C(C1CC1)N1CC2CNCC2C1` (stereo not drawn) [Example 10-2], the values for the inhibition constant Ki at rat α4β2 nAChR subtype, on human α4β2 nAChR subtype and at α7 nAChR subtype were 17.3 nM, 1.8 nM and 919 nM, respectively.

As for `O=C(C1CCCC1)N1CC2CNCC2C1` (stereo not drawn) [Example 10-3], the Ki at rat α4β2 nAChR subtype stood at 27.7 nM; at human α4β2 nAChR subtype, 29.6 nM. Further, the inhibition at 5 µM on α7 nAChR subtype was below 50%.

As for `COCC(=O)N1CC2CNCC2C1` (stereo not drawn) [Example 10-4], the inhibitory constant (Ki) at rat α4β2 nAChR subtype turned out to be 137 nM; at human α4β2 nAChR subtype it was 323 nM; on α7 nAChR subtype it was 12400 nM.

Turning to `C=CCC(=O)N1CC2CNCC2C1` (stereo not drawn) [Example 10-5], the Ki on rat α4β2 nAChR subtype stood at 22.5 nM; on human α4β2 nAChR subtype, 140 nM. In addition, at α7 nAChR subtype, the inhibition at 5 µM was below 50%.

As for `O=C(C1CC=CC1)N1CC2CNCC2C1` (stereo not drawn) [Example 10-7], the inhibition constant (Ki) came out at 28.4 nM on rat α4β2 nAChR subtype and 72.2 nM at human α4β2 nAChR subtype. Also, on α7 nAChR subtype, the inhibition at 5 µM is below 50%.

As for `O=C(C1=CCCC1)N1CC2CNCC2C1` (stereo not drawn) [Example 10-8], the Ki was determined as 116 nM at rat α4β2 nAChR subtype and 296 nM on human α4β2 nAChR subtype. Moreover, the inhibition at 5 µM at α7 nAChR subtype is below 50%.

As for `O=C(C(F)F)N1CC2CNCC2C1` (stereo not drawn) [Example 10-9], the Ki was found to be 4.3 nM at rat α4β2 nAChR subtype and 31.7 nM on human α4β2 nAChR subtype. Also, the inhibition at 5 µM on α7 nAChR subtype was below 50%.

In the case of `CC(C)=CC(=O)N1CC2CNCC2C1` (stereo not drawn) [Example 10-10], the figures for the Ki on rat α4β2 nAChR subtype and at human α4β2 nAChR subtype were 54.2 nM and 79.7 nM, respectively. Moreover, the inhibition at 5 µM at α7 nAChR subtype is below 50%.

Turning to `O=C(CF)N1CC2CNCC2C1` (stereo not drawn) [Example 10-11], the values for the inhibition constant (Ki) at rat α4β2 nAChR subtype and at human α4β2 nAChR subtype were 62.2 nM and 45.1 nM, respectively. Besides, the inhibition at 5 µM on α7 nAChR subtype is below 50%.

As for `NC(=O)CC(=O)N1CC2CNCC2C1` (stereo not drawn) [Example 10-12], the Ki at rat α4β2 nAChR subtype was 1390 nM; at human α4β2 nAChR subtype it was 746 nM. For the same compound, the inhibition at 5 µM at α7 nAChR subtype is below 50%.

In the case of `COCCC(=O)N1CC2CNCC2C1` (stereo not drawn) [Example 10-13], the Ki on rat α4β2 nAChR subtype was determined as 305 nM; on human α4β2 nAChR subtype, 220 nM. Besides, on α7 nAChR subtype, the inhibition at 5 µM was below 50%.

For `CCC(=O)N1CC2CNCC2C1` (stereo not drawn) [Example 10-14], the figures for the inhibition constant Ki on rat α4β2 nAChR subtype and on human α4β2 nAChR subtype were 16.9 nM and 8.5 nM, respectively. Besides, the inhibition at 5 µM on α7 nAChR subtype is below 50%.

Consider `CCCC(=O)N1CC2CNCC2C1` (stereo not drawn) [Example 10-15], for which the values for the inhibition constant Ki on rat α4β2 nAChR subtype and at human α4β2 nAChR subtype were 112 nM and 48.8 nM, respectively. In addition, the inhibition at 5 µM at α7 nAChR subtype was below 50%.

With `O=C(N1CC2CNCC2C1)C1(C(F)(F)F)CC1` (stereo not drawn) [Example 10-17], the values for the inhibition constant (Ki) at rat α4β2 nAChR subtype and on human α4β2 nAChR subtype were 419 nM and 303 nM, respectively. The inhibition at 5 µM on α7 nAChR subtype was below 50%.

`O=C(C1CC1(F)F)N1CC2CNCC2C1` (stereo not drawn) [Example 10-18]: the inhibition constant Ki on rat α4β2 nAChR subtype was determined as 6.2 nM; at human α4β2 nAChR subtype, 2.1 nM. Also, the inhibition at 5 µM on α7 nAChR subtype is below 50%.

Consider `CC1(C)CC1C(=O)N1CC2CNCC2C1` (stereo not drawn) [Example 10-19], for which the Ki on rat α4β2 nAChR subtype came out at 7.7 nM; at human α4β2 nAChR subtype, 16.9 nM. In addition, at α7 nAChR subtype, the inhibition at 5 µM is below 50%.

As to `CC1(C(=O)N2CC3CNCC3C2)CC1` (stereo not drawn) [Example 10-20], the Ki at rat α4β2 nAChR subtype amounted to 136 nM; at human α4β2 nAChR subtype, 53.9 nM. Further, the inhibition at 5 µM on α7 nAChR subtype was below 50%.

Turning to `CC1CC1C(=O)N1CC2CNCC2C1` (stereo not drawn) [Example 10-21], the inhibitory constant (Ki) at rat α4β2 nAChR subtype is 4.1 nM; at human α4β2 nAChR subtype it was 4.2 nM. Besides, the inhibition at 5 µM at α7 nAChR subtype is below 50%.

On to `O=C(N1CC2CNCC2C1)C1(O)CC1` (stereo not drawn) [Example 10-22], for which the Ki on rat α4β2 nAChR subtype came to 445 nM; at human α4β2 nAChR subtype, 343 nM. Also, the inhibition at 5 µM at α7 nAChR subtype is below 50%.

Consider `CC1(C)C(C(=O)N2CC3CNCC3C2)C1(C)C` (stereo not drawn) [Example 10-23], for which the figures for the Ki on rat α4β2 nAChR subtype and at human α4β2 nAChR subtype were 49.1 nM and 16.4 nM, respectively. The inhibition at 5 µM on α7 nAChR subtype is below 50%.

`N#CC1(C(=O)N2CC3CNCC3C2)CC1` (stereo not drawn) [Example 10-24]: the Ki at rat α4β2 nAChR subtype was found to be 572 nM; at human α4β2 nAChR subtype, 274 nM. In addition, the inhibition at 5 µM at α7 nAChR subtype is below 50%.

With `O=C(C1CCC1)N1CC2CNCC2C1` (stereo not drawn) [Example 10-25], the Ki at rat α4β2 nAChR subtype worked out at 12.5 nM; on human α4β2 nAChR subtype it was 5.8 nM. At α7 nAChR subtype, the inhibition at 5 µM was below 50%.

The values above are taken from patent publication US20110071180A1, “SUB-TYPE SELECTIVE AMIDES OF DIAZABICYCLOALKANES” (Targacept, Inc., priority 2008, published 2011).
